Here are results for 14 compounds from US20040266826A1, “Thiophenylthiopyrane dioxides as mmp or tnf-alpha inhibitors” (priority 2001, published 2004).

In one data set the target is T1, human MMP-9 (Homo sapiens, UniProt P14780).
T1 construct: purchased Yagai, Japan
T1 sequence (P14780 94-707): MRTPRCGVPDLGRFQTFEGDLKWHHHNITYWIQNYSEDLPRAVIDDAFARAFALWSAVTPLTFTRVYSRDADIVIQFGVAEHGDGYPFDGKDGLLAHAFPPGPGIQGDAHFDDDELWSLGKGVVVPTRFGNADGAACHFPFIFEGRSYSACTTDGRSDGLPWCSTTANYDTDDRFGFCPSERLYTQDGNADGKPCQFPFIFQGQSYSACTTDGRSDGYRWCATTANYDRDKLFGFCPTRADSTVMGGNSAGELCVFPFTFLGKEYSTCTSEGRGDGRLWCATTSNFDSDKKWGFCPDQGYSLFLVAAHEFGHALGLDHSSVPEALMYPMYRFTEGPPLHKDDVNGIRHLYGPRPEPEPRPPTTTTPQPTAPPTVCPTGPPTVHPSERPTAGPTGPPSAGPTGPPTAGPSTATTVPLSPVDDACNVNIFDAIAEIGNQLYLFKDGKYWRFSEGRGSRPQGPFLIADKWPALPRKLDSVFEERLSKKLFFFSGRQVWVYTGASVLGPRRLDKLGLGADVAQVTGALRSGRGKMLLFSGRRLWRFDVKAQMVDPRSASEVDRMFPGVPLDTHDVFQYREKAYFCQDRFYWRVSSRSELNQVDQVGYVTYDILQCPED
Description: Inhibitory activity of human MMP-9 (commercial kit, degradation of FITC-labeled bovine type IV collagen). The class given is biochemical. As to conditions: incubation 4 hours at 42° C. Here is the method:
Inhibitory Activity of Human MMP-9
The inhibitory activity of test compounds against human MMP-9 were measured by using commercial kits (Yagai, Japan). Gelatinolytic activity was determined by monitoring the degradation of FITC-labeled bovine type IV collagen after incubation for 4 hours at 42° C. The amount of degraded collagen was estimated by measuring the fluorescence intensity at 495 nm (excitation) and 520 nm (emission).
Inhibitory activity of human MMP-9 as mentioned above.
On to `O=C(O)C[C@]1(c2ccc(-c3ccc(-c4cnco4)cc3)s2)CCCCS1(=O)=O` [Example 3, [(2S)-2-[5-[4-(5-Oxazolyl)phenyl]thiophen-2-yl]-1,1-dioxo-3,4,5,6-tetrahydro-2H-thiopyran-2-yl]acetic acid], for which the IC50 amounted to 16 nM. That is a double-digit nanomolar value.
In turn, `O=C(O)C[C@]1(c2ccc(-c3ccc(-c4ccsc4)cc3)s2)CCCCS1(=O)=O` [Example 35, ((2S)-1,1-Dioxo-2-{5-[4-(thiophen-3-yl)phenyl]-thiophen-2-yl}-3,4,5,6-tetrahydro-2H-thiopyran-2-yl)acetic acid] returned an IC50 of 2.77 nM.
Same read-out and setting: the same measure for `COc1ccc2sc(-c3ccc([C@@]4(CC(=O)O)CCCCS4(=O)=O)s3)cc2c1` [Example 51, {(2S)-2-[5-(5-Methoxybenzothiophen-2-yl)thiophen-2-yl]-1,1-dioxo-3,4,5,6-tetrahydro-2H-thiopyran-2-yl} acetic acid]: 4.56 nM; for `O=C(O)C[C@]1(c2ccc(-c3cc4ccc(F)cc4s3)s2)CCCCS1(=O)=O` [Example 97, {(2S)-1,1-Dioxo-2-[5-(6-fluorobenzothiophen-2-yl)thiophen-2-yl]-3,4,5,6-tetrahydro-2H-thiopyran-2-yl}acetic acid]: 1.37 nM; for `O=C(O)C[C@]1(c2ccc(C#Cc3ccc(Cl)cc3)s2)CCCCS1(=O)=O` [Example 179, ((2S)-2-{5-[(4-Chlorophenyl)ethynyl]thiophen-2-yl)-1,1-dioxo-3,4,5,6-tetrahydro-2H-thiopyran-2-yl)acetic acid]: 7.17 nM.

System in a further data set: not given
Test: not given
Details: not given
Turning to `O=C(O)C[C@]1(c2ccc(-c3ccc4cc(-c5cnco5)ccc4c3)s2)CCCCS1(=O)=O` [Example 43, ((2S)-1,1-Dioxo-2-{5-[6-(oxazol-5-yl)naphthalen-2-yl]thiophen-2-yl}-3,4,5,6-tetrahydro-2H-thiopyran-2-yl)acetic acid], the melting point lay within 260 to 265 °C.
`CCOc1ccc2cc(-c3ccc([C@@]4(CC(=O)O)CCCCS4(=O)=O)s3)ccc2c1` [Example 48, {(2S)-1,1-Dioxo-2-[5-(6-ethoxynaphthalen-2-yl)thiophen-2-yl]-3,4,5,6-tetrahydro-2H-thiopyran-2-yl} acetic acid]: the melting point is 219 to 222 °C.
In the case of `Cc1ccc2sc(-c3ccc([C@@]4(CC(=O)O)CCCCS4(=O)=O)s3)cc2c1` [Example 50, {(2S)-2-[5-(5-Methylbenzothiophen-2-yl)thiophen-2-yl]-1,1-dioxo-3,4,5,6-tetrahydro-2H-thiopyran-2-yl} acetic acid], the melting point was 209 to 213 °C.
With `COc1ccc2sc(-c3ccc([C@@]4(CC(=O)O)CCCCS4(=O)=O)s3)cc2c1` [Example 51, {(2S)-2-[5-(5-Methoxybenzothiophen-2-yl)thiophen-2-yl]-1,1-dioxo-3,4,5,6-tetrahydro-2H-thiopyran-2-yl} acetic acid], the melting point was 215 to 218 °C.
As to `COc1ccc2cc(-c3ccc([C@@]4(CC(=O)O)CCCCS4(=O)=O)s3)sc2c1` [Example 52, {(2S)-2-[5-(6-Methoxybenzothiophen-2-yl)thiophen-2-yl]-1,1-dioxo-3,4,5,6-tetrahydro-2H-thiopyran-2-yl} acetic acid], the melting point fell in the range of 232 to 235 °C.
With `O=C(O)C[C@]1(c2ccc(-c3cc4cc(F)ccc4s3)s2)CCCCS1(=O)=O` [Example 53, {(2S)-2-[5-(5-Fluorobenzothiophen-2-yl)thiophen-2-yl]-1,1-dioxo-3,4,5,6-tetrahydro-2H-thiopyran-2-yl} acetic acid], the melting point fell in the range of 219 to 221 °C.
On to `CNC(=O)c1ccc2cc(-c3ccc([C@@]4(CC(=O)O)CCCCS4(=O)=O)s3)ccc2c1` [Example 54, [(2S)-1,1-Dioxo-2-(5-{6-[methylcarbamoyl)naphthalen-2-yl}thiophen-2-yl)-3,4,5,6-tetrahydro-2H-thiopyran-2-yl]acetic acid], for which the melting point fell in the range of 230 to 232 °C.
`CC(C)Oc1ccc(-c2ccc([C@@]3(CC(=O)O)CCCCS3(=O)=O)s2)cc1` [Example 96, ((2S)-1,1-Dioxo-2-{5-[4-(1-methylethoxy)phenyl]-thiophen-2-yl}-3,4,5,6-tetrahydro-2H-thiopyran-2-yl) acetic acid] came in with a melting point of 184 to 185 °C.
In the case of `CCCC#Cc1ccc([C@@]2(CC(=O)O)CCCCS2(=O)=O)s1` [Example 178, ((2S)-1,1-Dioxo-2-(5-[1-pentynyl]thiophen-2-yl}-3,4,5,6-tetrahydro-2H-thiopyran-2-yl)acetic acid], the melting point was in the range of 171 to 172 °C.
The same measure, in the same setting: next, `O=C(O)C[C@]1(c2ccc(C#Cc3ccc(Cl)cc3)s2)CCCCS1(=O)=O` [Example 179, ((2S)-2-{5-[(4-Chlorophenyl)ethynyl]thiophen-2-yl)-1,1-dioxo-3,4,5,6-tetrahydro-2H-thiopyran-2-yl)acetic acid]: 203 to 204 °C; `Cc1ccc(C#Cc2ccc([C@@]3(CC(=O)O)CCCCS3(=O)=O)s2)cc1` [Example 180, ((2S)-1,1-Dioxo-2-{5-[(4-methylphenyl)ethynyl]-thiophen-2-yl}-3,4,5,6-tetrahydro-2H-thiopyran-2-yl)acetic acid]: 172 to 173 °C.
